Test system: MOLT-4
Experiment: NCI-60 panel test
Type: cell-based
Conditions: Homo sapiens; MOLT-4, NCI-60 5-dose study
Protocol: (§1) FIG. 7. NCI-60 panel test. The effect of AOH1160 on growth of the NCI-60 panel, which consists of 60 cancer cell lines representing 9 major cancer types, was tested in a 5-dose study. Shown are the Log IC50 values determined for each cell line. […] This study was performed by the National Institute of Cancer.
(§2) As observed in FIG. 7, the effect of AOH1160 on growth of the NCI-60 panel, which consists of 60 cancer cell lines representing 9 major cancer types, was tested in a 5-dose study. Shown are the Log IC50 values determined for each cell line.

Row | Structure (SMILES) | GI50 [nM]
1 | O=C(CNC(=O)c1cccc2ccccc12)Nc1ccccc1Oc1ccc(O)cc1 [PCNA1] | 1200

Test system: SF-268
Experiment: NCI-60 panel test
Type: cell-based
Conditions: Homo sapiens
Protocol: as §1, §2

Row | Structure (SMILES) | GI50 [µM]
2 | O=C(CNC(=O)c1cccc2ccccc12)Nc1ccccc1Oc1ccc(O)cc1 [PCNA1] | 3.31

Test system: NCI/ADR-RES
Experiment: NCI-60 panel test
Type: cell-based
Conditions: Homo sapiens, NCI-60 5-dose study
Protocol: as §1, §2

Row | Structure (SMILES) | GI50 [nM]
3 | O=C(CNC(=O)c1cccc2ccccc12)Nc1ccccc1Oc1ccc(O)cc1 [PCNA1] | 1200

Test system: HCT-116
Experiment: NCI-60 panel test
Type: cell-based
Conditions: Homo sapiens; HCT-116, NCI-60 5-dose study
Protocol: as §1, §2

Row | Structure (SMILES) | GI50 [nM]
4 | O=C(CNC(=O)c1cccc2ccccc12)Nc1ccccc1Oc1ccc(O)cc1 [PCNA1] | 977

Test system: OVCAR-5
Experiment: NCI-60 panel test
Type: cell-based
Conditions: Homo sapiens; OVCAR-5, NCI-60 5-dose study
Protocol: as §1, §2

Row | Structure (SMILES) | GI50 [µM]
5 | O=C(CNC(=O)c1cccc2ccccc12)Nc1ccccc1Oc1ccc(O)cc1 [PCNA1] | 6.31

Test system: CCRF-CEM
Experiment: NCI-60 panel test
Type: cell-based
Conditions: Homo sapiens, NCI-60 5-dose study
Protocol: as §1, §2

Row | Structure (SMILES) | GI50 [nM]
6 | O=C(CNC(=O)c1cccc2ccccc12)Nc1ccccc1Oc1ccc(O)cc1 [PCNA1] | 933

Test system: SN12C
Experiment: NCI-60 panel test
Type: cell-based
Conditions: Homo sapiens, NCI-60 5-dose study
Protocol: as §1, §2

Row | Structure (SMILES) | GI50 [nM]
7 | O=C(CNC(=O)c1cccc2ccccc12)Nc1ccccc1Oc1ccc(O)cc1 [PCNA1] | 2190

Test system: NCI-H522
Experiment: NCI-60 panel test
Type: cell-based
Conditions: Homo sapiens; NCI-H522, NCI-60 5-dose study
Protocol: as §1, §2

Row | Structure (SMILES) | GI50 [nM]
8 | O=C(CNC(=O)c1cccc2ccccc12)Nc1ccccc1Oc1ccc(O)cc1 [PCNA1] | 851

Test system: M14
Experiment: NCI-60 panel test
Type: cell-based
Conditions: Homo sapiens; M14, NCI-60 5-dose study
Protocol: as §1, §2

Row | Structure (SMILES) | GI50 [nM]
9 | O=C(CNC(=O)c1cccc2ccccc12)Nc1ccccc1Oc1ccc(O)cc1 [PCNA1] | 692

Test system: IGROV1
Experiment: NCI-60 panel test
Type: cell-based
Conditions: Homo sapiens, IGROV-1; IGROV1, NCI-60 5-dose study
Protocol: as §1, §2

Row | Structure (SMILES) | GI50 [nM]
10 | O=C(CNC(=O)c1cccc2ccccc12)Nc1ccccc1Oc1ccc(O)cc1 [PCNA1] | 2340

Test system: LOX IMVI
Experiment: NCI-60 panel test
Type: cell-based
Conditions: Homo sapiens, NCI-60 5-dose study
Protocol: as §1, §2

Row | Structure (SMILES) | GI50 [nM]
11 | O=C(CNC(=O)c1cccc2ccccc12)Nc1ccccc1Oc1ccc(O)cc1 [PCNA1] | 1740

Test system: MDA-MB-468
Experiment: NCI-60 panel test
Type: cell-based
Conditions: Homo sapiens; MDA-MB-468, NCI-60 5-dose study
Protocol: as §1, §2

Row | Structure (SMILES) | GI50 [nM]
12 | O=C(CNC(=O)c1cccc2ccccc12)Nc1ccccc1Oc1ccc(O)cc1 [PCNA1] | 550

Test system: HOP-92
Experiment: NCI-60 panel test
Type: cell-based
Conditions: Homo sapiens; HOP-92, NCI-60 5-dose study
Protocol: as §1, §2

Row | Structure (SMILES) | GI50 [µM]
13 | O=C(CNC(=O)c1cccc2ccccc12)Nc1ccccc1Oc1ccc(O)cc1 [PCNA1] | 25.1

Test system: NCI-H226
Experiment: NCI-60 panel test
Type: cell-based
Conditions: Homo sapiens; NCI-H226, NCI-60 5-dose study
Protocol: as §1, §2

Row | Structure (SMILES) | GI50 [µM]
14 | O=C(CNC(=O)c1cccc2ccccc12)Nc1ccccc1Oc1ccc(O)cc1 [PCNA1] | 4.79

Test system: HCC-2998
Experiment: NCI-60 panel test
Type: cell-based
Conditions: Homo sapiens; HCC-2998, NCI-60 5-dose study
Protocol: as §1, §2

Row | Structure (SMILES) | GI50 [µM]
15 | O=C(CNC(=O)c1cccc2ccccc12)Nc1ccccc1Oc1ccc(O)cc1 [PCNA1] | 8.91

Test system: KM12
Experiment: NCI-60 panel test
Type: cell-based
Conditions: Homo sapiens; KM12, NCI-60 5-dose study
Protocol: as §1, §2

Row | Structure (SMILES) | GI50 [nM]
16 | O=C(CNC(=O)c1cccc2ccccc12)Nc1ccccc1Oc1ccc(O)cc1 [PCNA1] | 912

Test system: SK-MEL-28
Experiment: NCI-60 panel test
Type: cell-based
Conditions: Homo sapiens; SK-MEL-28, NCI-60 5-dose study
Protocol: as §1, §2

Row | Structure (SMILES) | GI50 [nM]
17 | O=C(CNC(=O)c1cccc2ccccc12)Nc1ccccc1Oc1ccc(O)cc1 [PCNA1] | 851

Test system: SK-OV-3
Experiment: NCI-60 panel test
Type: cell-based
Conditions: Homo sapiens; SK-OV-3, NCI-60 5-dose study
Protocol: as §1, §2

Row | Structure (SMILES) | GI50 [nM]
18 | O=C(CNC(=O)c1cccc2ccccc12)Nc1ccccc1Oc1ccc(O)cc1 [PCNA1] | 1580

Test system: MDA-MB-435
Experiment: NCI-60 panel test
Type: cell-based
Conditions: Homo sapiens; MDA-MB-435, NCI-60 5-dose study
Protocol: as §1, §2

Row | Structure (SMILES) | GI50 [nM]
19 | O=C(CNC(=O)c1cccc2ccccc12)Nc1ccccc1Oc1ccc(O)cc1 [PCNA1] | 162

Test system: COLO 205
Experiment: NCI-60 panel test
Type: cell-based
Conditions: Homo sapiens
Protocol: as §1, §2

Row | Structure (SMILES) | GI50 [nM]
20 | O=C(CNC(=O)c1cccc2ccccc12)Nc1ccccc1Oc1ccc(O)cc1 [PCNA1] | 794

Test system: RXF 393
Experiment: NCI-60 panel test
Type: cell-based
Conditions: Homo sapiens; RXF 393, NCI-60 5-dose study
Protocol: as §1, §2

Row | Structure (SMILES) | GI50 [nM]
21 | O=C(CNC(=O)c1cccc2ccccc12)Nc1ccccc1Oc1ccc(O)cc1 [PCNA1] | 501

Test system: PC-3
Experiment: NCI-60 panel test
Type: cell-based
Conditions: Homo sapiens; PC-3, NCI-60 5-dose study
Protocol: as §1, §2

Row | Structure (SMILES) | GI50 [nM]
22 | O=C(CNC(=O)c1cccc2ccccc12)Nc1ccccc1Oc1ccc(O)cc1 [PCNA1] | 1320

Test system: 786-0
Experiment: NCI-60 panel test
Type: cell-based
Conditions: Homo sapiens; 786-0, NCI-60 5-dose study
Protocol: as §1, §2

Row | Structure (SMILES) | GI50 [nM]
23 | O=C(CNC(=O)c1cccc2ccccc12)Nc1ccccc1Oc1ccc(O)cc1 [PCNA1] | 1050

Test system: SK-MEL-2
Experiment: NCI-60 panel test
Type: cell-based
Conditions: Homo sapiens; SK-MEL-2, NCI-60 5-dose study
Protocol: as §1, §2

Row | Structure (SMILES) | GI50 [µM]
24 | O=C(CNC(=O)c1cccc2ccccc12)Nc1ccccc1Oc1ccc(O)cc1 [PCNA1] | 25.1

Test system: BT-549
Experiment: NCI-60 panel test
Type: cell-based
Conditions: Homo sapiens; BT-549, NCI-60 5-dose study
Protocol: as §1, §2

Row | Structure (SMILES) | GI50 [nM]
25 | O=C(CNC(=O)c1cccc2ccccc12)Nc1ccccc1Oc1ccc(O)cc1 [PCNA1] | 1620

Test system: HCT-15
Experiment: NCI-60 panel test
Type: cell-based
Conditions: Homo sapiens; HCT-15, NCI-60 5-dose study
Protocol: as §1, §2

Row | Structure (SMILES) | GI50 [nM]
26 | O=C(CNC(=O)c1cccc2ccccc12)Nc1ccccc1Oc1ccc(O)cc1 [PCNA1] | 912

Test system: NCI-H322M
Experiment: NCI-60 panel test
Type: cell-based
Conditions: Homo sapiens, NCI-60 5-dose study
Protocol: as §1, §2

Row | Structure (SMILES) | GI50 [nM]
27 | O=C(CNC(=O)c1cccc2ccccc12)Nc1ccccc1Oc1ccc(O)cc1 [PCNA1] | 1150

Test system: SNB-19
Experiment: NCI-60 panel test
Type: cell-based
Conditions: Homo sapiens; SNB-19, NCI-60 5-dose study
Protocol: as §1, §2

Row | Structure (SMILES) | GI50 [nM]
28 | O=C(CNC(=O)c1cccc2ccccc12)Nc1ccccc1Oc1ccc(O)cc1 [PCNA1] | 1410

Test system: SNB-75
Experiment: NCI-60 panel test
Type: cell-based
Conditions: Homo sapiens; SNB-75, NCI-60 5-dose study
Protocol: as §1, §2

Row | Structure (SMILES) | GI50 [nM]
29 | O=C(CNC(=O)c1cccc2ccccc12)Nc1ccccc1Oc1ccc(O)cc1 [PCNA1] | 589

Test system: SW-620
Experiment: NCI-60 panel test
Type: cell-based
Conditions: Homo sapiens; SW-620, NCI-60 5-dose study
Protocol: as §1, §2

Row | Structure (SMILES) | GI50 [nM]
30 | O=C(CNC(=O)c1cccc2ccccc12)Nc1ccccc1Oc1ccc(O)cc1 [PCNA1] | 912

Test system: OVCAR-8
Experiment: NCI-60 panel test
Type: cell-based
Conditions: Homo sapiens; OVCAR-8, NCI-60 5-dose study
Protocol: as §1, §2

Row | Structure (SMILES) | GI50 [nM]
31 | O=C(CNC(=O)c1cccc2ccccc12)Nc1ccccc1Oc1ccc(O)cc1 [PCNA1] | 1320

Test system: HOP-62
Experiment: NCI-60 panel test
Type: cell-based
Conditions: Homo sapiens; HOP-62, NCI-60 5-dose study
Protocol: as §1, §2

Row | Structure (SMILES) | GI50 [nM]
32 | O=C(CNC(=O)c1cccc2ccccc12)Nc1ccccc1Oc1ccc(O)cc1 [PCNA1] | 1350

Test system: NCI-H23
Experiment: NCI-60 panel test
Type: cell-based
Conditions: Homo sapiens; NCI-H23, NCI-60 5-dose study
Protocol: as §1, §2

Row | Structure (SMILES) | GI50 [nM]
33 | O=C(CNC(=O)c1cccc2ccccc12)Nc1ccccc1Oc1ccc(O)cc1 [PCNA1] | 2140

Test system: A498
Experiment: NCI-60 panel test
Type: cell-based
Conditions: Homo sapiens; A498, NCI-60 5-dose study
Protocol: as §1, §2

Row | Structure (SMILES) | GI50 [nM]
34 | O=C(CNC(=O)c1cccc2ccccc12)Nc1ccccc1Oc1ccc(O)cc1 [PCNA1] | 1020

Test system: U251
Experiment: NCI-60 panel test
Type: cell-based
Conditions: Homo sapiens, U-251; U251, NCI-60 5-dose study
Protocol: as §1, §2

Row | Structure (SMILES) | GI50 [nM]
35 | O=C(CNC(=O)c1cccc2ccccc12)Nc1ccccc1Oc1ccc(O)cc1 [PCNA1] | 1410

Test system: MCF7
Experiment: NCI-60 panel test
Type: cell-based
Conditions: Homo sapiens; MCF7, NCI-60 5-dose study
Protocol: as §1, §2

Row | Structure (SMILES) | GI50 [nM]
36 | O=C(CNC(=O)c1cccc2ccccc12)Nc1ccccc1Oc1ccc(O)cc1 [PCNA1] | 851

Test system: K-562
Experiment: NCI-60 panel test
Type: cell-based
Conditions: Homo sapiens, K562; K-562, NCI-60 5-dose study
Protocol: as §1, §2

Row | Structure (SMILES) | GI50 [nM]
37 | O=C(CNC(=O)c1cccc2ccccc12)Nc1ccccc1Oc1ccc(O)cc1 [PCNA1] | 501
